Experimental data published in PMC4823954, “From fighting depression to conquering tumors: a novel tricyclic thiazepine compound as a tubulin polymerization inhibitor” (Cell Death & Disease, 2016).

Legend:
Assay in all cases: KINOMEscan
Format in all cases: binding
Conditions in all cases: read-out: % Ctrl
SBK1 = target: T1, SBK1 (Homo sapiens, UniProt Q52WX2)
T1 construct: purchased DiscoveRx KINOMEscan
Outline: (§1)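 Competition binding panel of 442 non-mutant kinases: test compound at 5 and 10 μM competed with an active-site-directed ligand for 1 h with shaking. Bound kinase was eluted with 0.5 μM ligand and quantified by qPCR; %Ctrl = (compound − positive control)/(DMSO − positive control) × 100, lower meaning tighter binding.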

[1] = target: T2, ABL1(T315I)-nonphosphorylated (Homo sapiens, UniProt P00519, T315I)
T2 construct: purchased DiscoveRx KINOMEscan

FRK = target: T3, FRK (Homo sapiens, UniProt P42685)
T3 construct: purchased DiscoveRx KINOMEscan
T3 sequence (P42685 whole entry): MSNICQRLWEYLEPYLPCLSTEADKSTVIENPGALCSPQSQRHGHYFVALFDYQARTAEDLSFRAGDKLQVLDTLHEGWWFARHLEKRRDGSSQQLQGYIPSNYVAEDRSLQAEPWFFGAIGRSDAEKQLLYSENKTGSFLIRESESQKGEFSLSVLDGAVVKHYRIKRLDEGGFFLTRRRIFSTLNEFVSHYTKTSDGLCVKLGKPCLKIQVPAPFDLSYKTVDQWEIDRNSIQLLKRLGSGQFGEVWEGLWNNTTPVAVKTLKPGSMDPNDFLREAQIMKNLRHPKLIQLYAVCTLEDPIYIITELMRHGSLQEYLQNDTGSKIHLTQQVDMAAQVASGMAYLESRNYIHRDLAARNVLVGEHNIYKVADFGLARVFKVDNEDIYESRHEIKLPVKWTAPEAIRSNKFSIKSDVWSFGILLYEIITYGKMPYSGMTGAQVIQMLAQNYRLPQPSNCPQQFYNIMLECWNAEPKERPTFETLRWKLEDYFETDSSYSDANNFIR
Outline: as §1

IRAK3 = target: T4, IRAK3 (Homo sapiens, UniProt Q9Y616)
T4 construct: purchased DiscoveRx KINOMEscan
Outline: as §1

[2] = target: T5, RPS6KA4(Kin.Dom.1-N-terminal) (Homo sapiens, UniProt O75676)
T5 construct: RPS6KA4(Kin.Dom.1-N-terminal); purchased DiscoveRx KINOMEscan
Outline: as §1

PLK4 = target: T6, PLK4 (Homo sapiens, UniProt O00444)
T6 construct: purchased DiscoveRx KINOMEscan
Outline: as §1

ERK2 = target: T7, ERK2 (Homo sapiens, UniProt P28482)
T7 construct: purchased DiscoveRx KINOMEscan
T7 sequence (P28482 whole entry): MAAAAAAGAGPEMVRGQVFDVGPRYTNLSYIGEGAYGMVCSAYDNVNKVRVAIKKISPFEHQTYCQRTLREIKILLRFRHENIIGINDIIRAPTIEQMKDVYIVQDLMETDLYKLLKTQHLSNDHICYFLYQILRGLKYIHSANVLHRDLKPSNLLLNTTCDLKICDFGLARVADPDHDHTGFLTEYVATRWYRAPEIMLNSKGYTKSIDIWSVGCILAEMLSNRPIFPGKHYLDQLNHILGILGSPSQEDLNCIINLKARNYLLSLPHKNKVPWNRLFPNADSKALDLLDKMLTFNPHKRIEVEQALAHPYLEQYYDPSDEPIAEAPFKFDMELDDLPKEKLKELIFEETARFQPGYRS
Outline: as §1

[3] = target: RPS6KA4(Kin.Dom.2-C-terminal) (Homo sapiens, UniProt O75676)
Sequence of RPS6KA4(Kin.Dom.2-C-terminal) (O75676 372-772 limits assumed): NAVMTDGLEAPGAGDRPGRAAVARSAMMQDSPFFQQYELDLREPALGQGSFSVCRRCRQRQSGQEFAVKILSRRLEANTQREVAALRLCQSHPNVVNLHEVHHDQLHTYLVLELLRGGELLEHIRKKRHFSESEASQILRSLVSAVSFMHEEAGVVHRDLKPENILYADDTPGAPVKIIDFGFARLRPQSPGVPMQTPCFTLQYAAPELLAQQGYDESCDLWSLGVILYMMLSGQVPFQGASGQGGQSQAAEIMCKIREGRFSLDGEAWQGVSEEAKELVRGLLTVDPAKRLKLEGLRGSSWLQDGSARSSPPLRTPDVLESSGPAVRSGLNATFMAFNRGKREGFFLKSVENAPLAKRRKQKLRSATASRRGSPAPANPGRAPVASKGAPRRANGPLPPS
Outline: as §1

AKT3 = target: T8, AKT3 (Homo sapiens, UniProt Q9Y243)
T8 construct: purchased DiscoveRx KINOMEscan
T8 sequence (Q9Y243 whole entry): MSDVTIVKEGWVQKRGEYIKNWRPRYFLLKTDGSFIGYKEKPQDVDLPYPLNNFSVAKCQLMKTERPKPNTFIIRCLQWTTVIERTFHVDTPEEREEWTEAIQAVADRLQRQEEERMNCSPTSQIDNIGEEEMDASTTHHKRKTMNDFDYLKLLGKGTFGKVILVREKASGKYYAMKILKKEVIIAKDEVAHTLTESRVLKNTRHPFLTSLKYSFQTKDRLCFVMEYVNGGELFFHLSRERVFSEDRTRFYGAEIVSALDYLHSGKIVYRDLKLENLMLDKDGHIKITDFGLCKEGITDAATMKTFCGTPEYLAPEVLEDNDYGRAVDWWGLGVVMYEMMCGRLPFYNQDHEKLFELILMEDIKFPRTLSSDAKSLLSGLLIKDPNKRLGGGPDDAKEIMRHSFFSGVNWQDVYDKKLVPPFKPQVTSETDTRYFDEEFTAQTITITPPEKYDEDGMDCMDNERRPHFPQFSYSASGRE
Outline: as §1

SgK110 = target: T9, SgK110 (Homo sapiens, UniProt P0C264)
T9 construct: purchased DiscoveRx KINOMEscan
T9 sequence (P0C264 whole entry): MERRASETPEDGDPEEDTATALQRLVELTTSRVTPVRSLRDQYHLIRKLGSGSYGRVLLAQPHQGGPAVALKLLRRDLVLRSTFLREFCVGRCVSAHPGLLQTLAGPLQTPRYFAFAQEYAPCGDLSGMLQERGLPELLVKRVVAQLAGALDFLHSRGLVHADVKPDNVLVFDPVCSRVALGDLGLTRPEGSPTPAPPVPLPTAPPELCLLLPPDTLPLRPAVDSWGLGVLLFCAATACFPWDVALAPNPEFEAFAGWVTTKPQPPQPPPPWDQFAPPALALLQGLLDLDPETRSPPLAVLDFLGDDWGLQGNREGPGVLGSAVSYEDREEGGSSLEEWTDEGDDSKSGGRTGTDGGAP
Outline: as §1

PIK3CA(I800L) = target: T10, PIK3CA(I800L) (Homo sapiens, UniProt P42336, I800L)
T10 construct: purchased DiscoveRx KINOMEscan

PIK3C2G = target: T11, PIK3C2G (Homo sapiens, UniProt O75747)
T11 construct: purchased DiscoveRx KINOMEscan
Outline: as §1

HCK = target: T12, HCK (Homo sapiens, UniProt P08631)
T12 construct: purchased DiscoveRx KINOMEscan
Outline: as §1

TLK1 = target: T13, TLK1 (Homo sapiens, UniProt Q9UKI8)
T13 construct: purchased DiscoveRx KINOMEscan
Outline: as §1

TGFBR1 = target: T14, TGFBR1 (Homo sapiens, UniProt P36897)
T14 construct: purchased DiscoveRx KINOMEscan
T14 sequence (P36897 34-503): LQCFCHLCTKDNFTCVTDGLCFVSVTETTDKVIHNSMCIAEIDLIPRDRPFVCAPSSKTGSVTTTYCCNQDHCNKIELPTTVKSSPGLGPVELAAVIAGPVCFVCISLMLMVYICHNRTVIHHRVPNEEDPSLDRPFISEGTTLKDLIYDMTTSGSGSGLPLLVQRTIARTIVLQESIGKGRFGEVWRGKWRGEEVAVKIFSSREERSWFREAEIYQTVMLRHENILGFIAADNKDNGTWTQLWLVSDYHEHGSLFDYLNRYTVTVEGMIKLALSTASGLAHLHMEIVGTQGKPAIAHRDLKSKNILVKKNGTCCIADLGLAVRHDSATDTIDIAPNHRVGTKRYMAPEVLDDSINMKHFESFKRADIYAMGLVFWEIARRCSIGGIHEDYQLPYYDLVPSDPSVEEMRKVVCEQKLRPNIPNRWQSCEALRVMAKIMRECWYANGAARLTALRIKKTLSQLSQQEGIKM
Outline: as §1

FGFR4 = target: T15, FGFR4 (Homo sapiens, UniProt P22455)
T15 construct: purchased DiscoveRx KINOMEscan
T15 sequence (P22455 22-802): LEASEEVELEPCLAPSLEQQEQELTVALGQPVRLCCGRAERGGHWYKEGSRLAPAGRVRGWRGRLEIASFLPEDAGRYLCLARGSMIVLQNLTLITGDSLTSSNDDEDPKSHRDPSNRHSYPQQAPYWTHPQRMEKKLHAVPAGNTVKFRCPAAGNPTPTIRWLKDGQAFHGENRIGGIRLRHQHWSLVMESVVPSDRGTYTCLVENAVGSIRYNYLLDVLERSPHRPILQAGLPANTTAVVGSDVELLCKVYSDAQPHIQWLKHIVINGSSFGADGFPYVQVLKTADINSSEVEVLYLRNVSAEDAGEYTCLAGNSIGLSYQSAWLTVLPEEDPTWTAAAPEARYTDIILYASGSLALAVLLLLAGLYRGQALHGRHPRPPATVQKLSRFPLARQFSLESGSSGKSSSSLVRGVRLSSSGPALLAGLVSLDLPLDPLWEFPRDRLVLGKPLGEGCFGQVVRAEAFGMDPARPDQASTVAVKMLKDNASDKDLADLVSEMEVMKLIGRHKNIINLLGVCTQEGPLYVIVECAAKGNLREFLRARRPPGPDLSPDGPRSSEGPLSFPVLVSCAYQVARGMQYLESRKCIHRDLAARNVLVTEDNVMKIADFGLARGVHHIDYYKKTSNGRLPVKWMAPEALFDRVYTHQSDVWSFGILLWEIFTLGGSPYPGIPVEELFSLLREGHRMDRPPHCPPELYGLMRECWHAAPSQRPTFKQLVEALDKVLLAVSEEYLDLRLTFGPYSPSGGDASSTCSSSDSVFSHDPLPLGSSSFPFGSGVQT
Outline: as §1

WEE1 = target: T16, WEE1 (Homo sapiens, UniProt P30291)
T16 construct: purchased DiscoveRx KINOMEscan
T16 sequence (P30291 whole entry): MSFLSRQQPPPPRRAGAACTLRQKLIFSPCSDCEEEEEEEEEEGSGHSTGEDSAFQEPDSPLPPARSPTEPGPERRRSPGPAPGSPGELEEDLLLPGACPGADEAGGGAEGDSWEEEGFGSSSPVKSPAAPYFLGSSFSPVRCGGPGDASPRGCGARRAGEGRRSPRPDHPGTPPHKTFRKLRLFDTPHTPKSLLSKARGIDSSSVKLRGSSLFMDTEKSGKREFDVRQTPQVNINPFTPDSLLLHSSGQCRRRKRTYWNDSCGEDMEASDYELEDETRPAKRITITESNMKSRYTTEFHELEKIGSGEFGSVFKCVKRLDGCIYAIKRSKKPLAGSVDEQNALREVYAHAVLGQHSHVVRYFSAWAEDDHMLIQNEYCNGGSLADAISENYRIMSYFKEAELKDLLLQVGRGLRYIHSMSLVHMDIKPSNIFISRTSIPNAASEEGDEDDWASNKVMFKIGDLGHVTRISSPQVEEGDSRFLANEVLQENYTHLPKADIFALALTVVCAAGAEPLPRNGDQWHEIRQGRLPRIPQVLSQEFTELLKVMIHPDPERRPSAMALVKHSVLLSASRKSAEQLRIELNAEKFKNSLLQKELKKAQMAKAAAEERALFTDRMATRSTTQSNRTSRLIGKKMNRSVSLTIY
Outline: as §1

PAK3 = target: T17, PAK3 (Homo sapiens, UniProt O75914)
T17 construct: purchased DiscoveRx KINOMEscan
Outline: as §1

EGFR(E746-A750del) = target: T18, EGFR(E746-A750del) (Homo sapiens, UniProt P00533, DEL746-750)
T18 construct: purchased DiscoveRx KINOMEscan

IRAK1 = target: T19, IRAK1 (Homo sapiens, UniProt P51617)
T19 construct: purchased DiscoveRx KINOMEscan
Outline: as §1

YANK1 = target: T20, YANK1 (Homo sapiens, UniProt Q8WU08)
T20 construct: purchased DiscoveRx KINOMEscan
Outline: as §1

EPHA5 = target: T21, EPHA5 (Homo sapiens, UniProt P54756)
T21 construct: purchased DiscoveRx KINOMEscan
Outline: as §1

KIT = target: T22, KIT (Homo sapiens, UniProt P10721)
T22 construct: purchased DiscoveRx KINOMEscan
Outline: as §1

MRCKA = target: T23, MRCKA (Homo sapiens, UniProt Q5VT25)
T23 construct: purchased DiscoveRx KINOMEscan
Outline: as §1

TXK = target: T24, TXK (Homo sapiens, UniProt P42681)
T24 construct: purchased DiscoveRx KINOMEscan
Outline: as §1

BMPR1B = target: T25, BMPR1B (Homo sapiens, UniProt O00238)
T25 construct: purchased DiscoveRx KINOMEscan
Outline: as §1

CSNK1E = target: T26, CSNK1E (Homo sapiens, UniProt P49674)
T26 construct: purchased DiscoveRx KINOMEscan
T26 sequence (P49674 whole entry): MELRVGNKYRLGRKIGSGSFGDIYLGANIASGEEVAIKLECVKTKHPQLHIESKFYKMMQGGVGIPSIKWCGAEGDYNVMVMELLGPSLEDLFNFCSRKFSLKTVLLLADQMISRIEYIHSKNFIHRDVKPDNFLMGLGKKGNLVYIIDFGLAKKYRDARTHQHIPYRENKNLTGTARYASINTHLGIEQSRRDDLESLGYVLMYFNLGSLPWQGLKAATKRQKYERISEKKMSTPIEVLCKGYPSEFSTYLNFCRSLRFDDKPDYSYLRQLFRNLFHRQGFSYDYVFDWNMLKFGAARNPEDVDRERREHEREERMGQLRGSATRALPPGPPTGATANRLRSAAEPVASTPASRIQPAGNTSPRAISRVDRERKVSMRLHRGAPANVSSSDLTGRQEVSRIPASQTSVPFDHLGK
Outline: as §1

DCAMKL1 = target: T27, DCAMKL1 (Homo sapiens, UniProt O15075)
T27 construct: purchased DiscoveRx KINOMEscan
Outline: as §1

DMPK2 = target: T28, DMPK2 (Homo sapiens, UniProt Q6DT37)
T28 construct: purchased DiscoveRx KINOMEscan
Outline: as §1

T1 sequence (Q52WX2 whole entry): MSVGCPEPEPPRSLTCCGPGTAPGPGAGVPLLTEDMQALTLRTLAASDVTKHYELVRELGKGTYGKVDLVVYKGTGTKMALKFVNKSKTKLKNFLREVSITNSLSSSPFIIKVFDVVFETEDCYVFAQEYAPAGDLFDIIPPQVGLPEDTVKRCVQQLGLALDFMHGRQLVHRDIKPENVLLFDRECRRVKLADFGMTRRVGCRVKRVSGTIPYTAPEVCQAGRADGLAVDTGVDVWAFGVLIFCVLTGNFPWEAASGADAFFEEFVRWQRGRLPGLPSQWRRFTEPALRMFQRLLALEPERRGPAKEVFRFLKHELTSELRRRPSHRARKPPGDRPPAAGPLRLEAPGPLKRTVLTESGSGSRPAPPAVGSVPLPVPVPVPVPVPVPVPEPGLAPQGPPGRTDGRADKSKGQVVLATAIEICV

How did the remaining binding at 5 µM (SBK1; 5 μM) turn out when `Cc1ccc(C2=Nc3cccnc3S(=O)(=O)c3ccccc32)cc1` [TBPT, 6-(p-tolyl)benzo[f] pyrido[2,3-b][1,4] thiazepine 11,11-dioxide] was run?
Its remaining binding at 5 µM is 100%.

What about the remaining binding at 10 µM (SBK1; 10 μM) of the same compound?
The remaining binding at 10 µM was 85%.

And the remaining binding at 5 µM ([1]; 5 μM)?
The remaining binding at 5 µM was 100%.

What about the remaining binding at 10 µM ([1]; 10 μM) of the same compound?
The remaining binding at 10 µM was 100%.

And the remaining binding at 5 µM (FRK; 5 μM)?
Its remaining binding at 5 µM is 100%.

And the remaining binding at 10 µM (FRK; 10 μM)?
Its remaining binding at 10 µM is 99%.

What about the remaining binding at 5 µM (IRAK3; 5 μM) of the same compound?
Its remaining binding at 5 µM is 92%.

What about the remaining binding at 10 µM (IRAK3; 10 μM) of the same compound?
Its remaining binding at 10 µM is 82%.

And the remaining binding at 5 µM ([2]; 5 μM)?
Its remaining binding at 5 µM is 75%.

And the remaining binding at 10 µM ([2]; 10 μM)?
Its remaining binding at 10 µM is 100%.

And the remaining binding at 5 µM (PLK4; 5 μM)?
The remaining binding at 5 µM was 100%.

What about the remaining binding at 10 µM (PLK4; 10 μM) of the same compound?
The remaining binding at 10 µM was 92%.

And the remaining binding at 5 µM (ERK2; 5 μM)?
Its remaining binding at 5 µM is 76%.

And the remaining binding at 10 µM (ERK2; 10 μM)?
Its remaining binding at 10 µM is 92%.

What about the remaining binding at 5 µM ([3]; 5 μM) of the same compound?
The remaining binding at 5 µM was 100%.

What about the remaining binding at 10 µM ([3]; 10 μM) of the same compound?
Its remaining binding at 10 µM is 90%.

And the remaining binding at 5 µM (AKT3; 5 μM)?
The remaining binding at 5 µM was 100%.

And the remaining binding at 10 µM (AKT3; 10 μM)?
The remaining binding at 10 µM was 100%.

What about the remaining binding at 5 µM (SgK110; 5 μM) of the same compound?
Its remaining binding at 5 µM is 100%.

What about the remaining binding at 10 µM (SgK110; 10 μM) of the same compound?
The remaining binding at 10 µM was 100%.

What about the remaining binding at 5 µM (PIK3CA(I800L); 5 μM) of the same compound?
The remaining binding at 5 µM was 98%.

And the remaining binding at 10 µM (PIK3CA(I800L); 10 μM)?
The remaining binding at 10 µM was 72%.

And the remaining binding at 5 µM (PIK3C2G; 5 μM)?
Its remaining binding at 5 µM is 100%.

What about the remaining binding at 10 µM (PIK3C2G; 10 μM) of the same compound?
Its remaining binding at 10 µM is 100%.

And the remaining binding at 5 µM (HCK; 5 μM)?
The remaining binding at 5 µM was 93%.

And the remaining binding at 10 µM (HCK; 10 μM)?
The remaining binding at 10 µM was 100%.

And the remaining binding at 5 µM (TLK1; 5 μM)?
Its remaining binding at 5 µM is 93%.

What about the remaining binding at 10 µM (TLK1; 10 μM) of the same compound?
The remaining binding at 10 µM was 97%.

And the remaining binding at 5 µM (TGFBR1; 5 μM)?
The remaining binding at 5 µM was 100%.

And the remaining binding at 10 µM (TGFBR1; 10 μM)?
Its remaining binding at 10 µM is 85%.

And the remaining binding at 5 µM (FGFR4; 5 μM)?
Its remaining binding at 5 µM is 96%.

And the remaining binding at 10 µM (FGFR4; 10 μM)?
The remaining binding at 10 µM was 97%.

And the remaining binding at 5 µM (WEE1; 5 μM)?
Its remaining binding at 5 µM is 100%.

And the remaining binding at 10 µM (WEE1; 10 μM)?
The remaining binding at 10 µM was 96%.

What about the remaining binding at 5 µM (PAK3; 5 μM) of the same compound?
Its remaining binding at 5 µM is 100%.

What about the remaining binding at 10 µM (PAK3; 10 μM) of the same compound?
Its remaining binding at 10 µM is 100%.

What about the remaining binding at 5 µM (EGFR(E746-A750del); 5 μM) of the same compound?
The remaining binding at 5 µM was 81%.

What about the remaining binding at 10 µM (EGFR(E746-A750del); 10 μM) of the same compound?
Its remaining binding at 10 µM is 100%.

And the remaining binding at 5 µM (IRAK1; 5 μM)?
Its remaining binding at 5 µM is 100%.

And the remaining binding at 10 µM (IRAK1; 10 μM)?
Its remaining binding at 10 µM is 93%.

And the remaining binding at 5 µM (YANK1; 5 μM)?
The remaining binding at 5 µM was 96%.

And the remaining binding at 10 µM (YANK1; 10 μM)?
Its remaining binding at 10 µM is 100%.

What about the remaining binding at 5 µM (EPHA5; 5 μM) of the same compound?
The remaining binding at 5 µM was 92%.

What about the remaining binding at 10 µM (EPHA5; 10 μM) of the same compound?
Its remaining binding at 10 µM is 100%.

And the remaining binding at 5 µM (KIT; 5 μM)?
Its remaining binding at 5 µM is 72%.

What about the remaining binding at 10 µM (KIT; 10 μM) of the same compound?
The remaining binding at 10 µM was 100%.

And the remaining binding at 5 µM (MRCKA; 5 μM)?
The remaining binding at 5 µM was 89%.

What about the remaining binding at 10 µM (MRCKA; 10 μM) of the same compound?
Its remaining binding at 10 µM is 99%.

And the remaining binding at 5 µM (TXK; 5 μM)?
Its remaining binding at 5 µM is 100%.

And the remaining binding at 10 µM (TXK; 10 μM)?
Its remaining binding at 10 µM is 75%.

What about the remaining binding at 5 µM (BMPR1B; 5 μM) of the same compound?
The remaining binding at 5 µM was 95%.

And the remaining binding at 10 µM (BMPR1B; 10 μM)?
The remaining binding at 10 µM was 88%.

And the remaining binding at 5 µM (CSNK1E; 5 μM)?
The remaining binding at 5 µM was 100%.

What about the remaining binding at 10 µM (CSNK1E; 10 μM) of the same compound?
Its remaining binding at 10 µM is 96%.

And the remaining binding at 5 µM (DCAMKL1; 5 μM)?
The remaining binding at 5 µM was 100%.

And the remaining binding at 10 µM (DCAMKL1; 10 μM)?
The remaining binding at 10 µM was 89%.

What about the remaining binding at 5 µM (DMPK2; 5 μM) of the same compound?
The remaining binding at 5 µM was 100%.

And the remaining binding at 10 µM (DMPK2; 10 μM)?
Its remaining binding at 10 µM is 83%.
